Source: US10905757B2, “Cross-reactive T cell epitopes of HIV, SIV, and FIV for vaccines in humans and cats” (priority 2012, dated 2021)
“Also recorded” adds a separate entry of the source. Marks after values point to notes of the source that are not given here. Ends that are not written are not given here.

Tests used:
Assay type in all cases: cell-based, human
PBMC from HIV+ subjects = experiment: IFNγ ELISpot, PBMC from HIV+ subjects; details: for IFNγ (positive/total): positive responses over total tested, F3 responders (H3 responders for H3-3)
Method: 1.0×10^5-2.0×10^5 PBMCs were stimulated with peptides (15 μg peptide/well) in ELISpot plates for 18 hours in AIMS V medium (at 10% normal human serum). The spots were counted with an ELISpot reader and adjusted to spot forming units (SFU) per 10^6 cells.
Positive reactivity was defined at ≥70 SFU/10^6 cells after subtracting the background derived from non-specific peptide control or media control, and the average of 3 HIV-1 negative controls (<30 SFU/10^6 cells).
ELISpot assays. Enzyme-linked immunosorbent spot assays (ELISpot) for IFNγ (R&D Systems, Minneapolis, Minn.) were performed with AIM V medium containing 5% heat-inactivated (56° C., 30 min) human serum as previously described (Abbott et al. (2012)). The PBMC from HIV+ subjects were stimulated with either peptide pool (4-5 consecutive peptides per pool at 5 μg per peptide) or individual peptide (15 μg/well). The peptides were 11-16 aa in length with 8-10 aa overlap. The results were analyzed with an ELISpot reader (MVS Pacific LLC, Minneapolis, Minn.) and adjusted to spot forming units (SFU) per 10^6 cells, after subtraction of the average medium control for each subject. The PBMC from HIV+ subjects were stimulated with T-cell mitogen, phytohemaglutinin A (PHA, 5 μg/mL), as positive control. At a positive threshold of 70 SFU, HIV− subjects had no substantial IFNγ responses (>50 SFU) to HIV and FIV peptide pools.
ELISpot assays. Human enzyme-linked immunosorbent spot assays (ELISpot) (R&D Systems, Cat #XEL285) which measure IFNγ production were performed (Abbott et al. 2011). The positive threshold for human IFNγ responses was >50 spot forming units (SFU)/10^6 cells. The final value for each subject was derived after subtracting the result of each HIV^+ subject with the media control followed by subtraction with the average response of the HIV^− subjects which was rarely more than 10 SFU.

[1] = system: CD3+CD8+ T cells from HIV+ subjects; experiment: CFSE-proliferation, CD3+CD8+ T cells from HIV+ subjects; details: for CD8^+ T Proliferation (positive/total): positive responses over total tested, F3 responders (H3 responders for H3-3)
Method: (§1) 2×10^5-5×10^5 CFSE labeled PBMCs were incubated with 15-20 μg of peptides in 600 μL of RPMI media with 10% FBS for 5 days at 37° C. (5% CO2). After harvesting, they were labeled with allophycocyanin (APC), APC-H7, and Pacific Blue labeled monoclonal antibodies (MAb) to human CD3, CD4, and CD8, respectively and analyzed for T-cell proliferation by flow cytometry using BD LSRII (BD Biosciences). The proliferating CD4^+ or CD8^+ T cell populations were defined from the CD3^+ cell population as either CD3^+CD8^+ or CD3^+CD4^+T cells (mutually exclusive) with low CFSE (CFSE^low) staining.
(§2) Flow cytometry (FACS) for carboxyfluoresein diacetate succinimide ester (CFSE)-proliferation and intracellular cytotoxin staining (ICS). The CFSE-proliferation analysis was performed on PBMC according to the manufacturer's protocol (Invitrogen, Carlsbad, Calif.) and processed as previously described (Lichterfeld et al. (2004)). Modifications consisted of using 2.0-5.0×10^5 CFSE-labeled cells stimulated for 5 days (37° C., 5% CO^2) with 30 μg/well of total peptides in a pool (15 μg/well for individual peptide, Table 10) or 5 μg/mL PHA in AIM V medium containing 25 μg/mL of gentamycin and 10% heat-inactivated human serum. Subsequently these cells were harvested and labeled with the LIVE/DEAD fixable yellow dye (Invitrogen) and then treated 5 min with anti-CD16/CD32 antibody (Biolegend, San Diego, Calif.) for blocking non-specific binding before phenotype-specific antibodies. The following antibodies were used for the CFSE-proliferation analysis: anti-CD4 APC, anti-CD3 APC-H7, and anti-CD8 Pacific Blue (BD Biosciences, San Jose, Calif.).
(§3) In both analyses, 1.0-2.0×10^4 cells were fixed in phosphate-buffered saline (PBS) containing 2% paraformaldehyde and analyzed on BD LSRII using […] Software (BD Biosciences), with a positive threshold of 3% CFSE^low for CFSE-proliferation and 1% T cells expressing cytotoxin for ICS. The final value for each subject was derived after subtraction of the subject's medium control and the average value of peptide-stimulated cells from uninfected control subjects.
(§4) Flow cytometry (FACS) for measuring CFSE-proliferation and intracellular cytokine staining (ICS). Carboxyfluorescein diacetate succinimide ester (CFSE)-proliferation analysis was performed according to the manufacturer's protocol (Invitrogen) and processed as previously described (Lichterfeld et al. 2004) using the following modification: 2.5-5.0×10^5 CFSE-labeled PBMC stimulated for 4-5 days (37° C., 5% CO2) with 15-30 μg of peptides in culture media (AIM V medium, 25 μg/mL gentamycin, and 10% heat-inactivated fetal bovine serum). The ICS analysis was performed as previously described (Horton et al. 2007; Pattacini et al. 2012).
(§5) The antibodies used for the proliferation analysis consisted of anti-CD4 allophycocyanin (APC) anti-CD3 APC-H7, and anti-CD8 Pacific Blue, and those for ICS were anti-CD3 APC-H7, anti-CD4 BD Horizon V450, anti-CD8 FITC, anti-granzyme B (GrzB) Alexa 700, anti-granzyme A (GrzA) PE (BD Biosciences, Cat #555349, 560176, 558207, 560345, 555366, 560213, 558904), and anti-perforin PerCP (Abcam, Cat #ab86319). Both analyses were performed with BD LSRII and […]™ Software (BD Biosciences), using a positive threshold of >1% CFSE^low for CFSE-proliferation except for ICS studies with threshold of >0.1% T cells expressing cytotoxin. The final value for each subject was derived after subtracting the result of each HIV^+ subject with the media control followed by subtraction with the average response of the media-control subtracted HIV^− subjects.

[2] = system: CD8+ T cells from HIV+ subjects; experiment: Intracellular cytotoxin staining (ICS: perforin, GrzA, GrzB, CD107a), CD8+ T cells from HIV+ subjects; set-up: key to CD8^+ T-cell cytotoxins (8C): positive (+); negative (−) response; inhibitory (↓); not done (n); details: for CD8^+ T-cell cytotoxins (8C): HIV^+ subjects compared to HIV^− control group
Method: (§6) Briefly, 1×10^6PBMCs (freshly isolated) are stimulated with 20 μg of peptides for 6 hours in a total volume of 200 μL in a 96-well plate in presence of Golgi transport inhibitor (37° C., 5% CO2). The cells are processed as previously described (Horton et al. (2007)). Cells were stained with the LIVE/DEAD® fixable yellow dye (Invitrogen, Eugene, Oreg.). The monoclonal antibodies fluorochome-conjugated to human cytokines used are: APC-H7 to CD3 (clone SK7); BD Horizon V450 to CD4 (clone RPA-T4); Qdot to CD8 (clone 3B5); PE-cy7 to IFN-γ (clone 4S.B3); APC to IL-2 (clone MQ1-17H12) PerCP to perforin (clone B-D48); Alexa F1.700 to granzyme-B (clone GB11) and PE to granzyme-A (clone CB9). The flow cytometry data is collected using BD LSRII and analyzed with the FACS DIVA software.
(§7) The ICS analysis (Horton et al. (2007)) involved stimulating 0.5-1.0×10^6 freshly isolated PBMC for 6 h with the same peptide stimulant and culture conditions as the proliferation analysis in the presence of 1 μg/mL of Golgi transport inhibitor and monensin followed by labeling with LIVE/DEAD fixable yellow dye and then treatment with anti-CD16/CD32 antibody and T-cell phenotypic antibodies. The cells were subsequently fixed and permeabilized with Cytofix/Cytoperm solution (BD Biosciences) before reaction with anti-cytotoxin antibodies. The antibodies consisted of anti-CD3 APC-H7, anti-CD4 BD Horizon V450, and anti-CD8 FITC followed by anti-GrzB Alexa 700 and anti-GrzA PE (all from BD Biosciences), and anti-perforin PerCP (Abcam, Boston, Mass.).
as §3, §4, §5

[3] = system: CD4+ T cells from HIV+ subjects; experiment: Intracellular cytotoxin staining (ICS), CD4+ T cells from HIV+ subjects; set-up: key to CD4^+ T-cell cytotoxins (4C): positive (+); negative (−) response; inhibitory (↓); not done (n); details: HIV^+ subjects compared to HIV^− control group
Method: as §6, §7, §3, §4, §5

[4] = system: CD4+ or CD8+ T cells from HIV+ subjects; experiment: Intracellular cytotoxin staining (ICS), CD4+ or CD8+ T cells from HIV+ responders
Method: Briefly, 1×10^6PBMCs (freshly isolated) are stimulated with 20 μg of peptides for 6 hours in a total volume of 200 μL in a 96-well plate in presence of Golgi transport inhibitor (37° C., 5% CO2). […] Cells were stained with the LIVE/DEAD® fixable yellow dye (Invitrogen, Eugene, Oreg.). […] The flow cytometry data is collected using BD LSRII and analyzed with the FACS DIVA software.
The cells were subsequently fixed and permeabilized with Cytofix/Cytoperm solution (BD Biosciences) before reaction with anti-cytotoxin antibodies. The antibodies consisted of anti-CD3 APC-H7, anti-CD4 BD Horizon V450, and anti-CD8 FITC followed by anti-GrzB Alexa 700 and anti-GrzA PE (all from BD Biosciences), and anti-perforin PerCP (Abcam, Boston, Mass.).
as §3
Flow cytometry (FACS) for measuring CFSE-proliferation and intracellular cytokine staining (ICS).
Both analyses were performed with BD LSRII and […]™ Software (BD Biosciences), using a positive threshold of >1% CFSE^low for CFSE-proliferation except for ICS studies with threshold of >0.1% T cells expressing cytotoxin.

[5] = system: CD3+CD4+ T cells from HIV+ subjects; experiment: CFSE-proliferation, CD3+CD4+ T cells from HIV+ subjects
Method: as §1, §2, §3, §4, §5

[6] = responders to Fp9 or Fp14 peptide pools
[7] = average positive values, responders to Fp9 or Fp14 peptide pools
[8] = responders/tested, small 9-13mer peptides, yr 4, responders to Fp9 or Fp14 pool via both proliferation and IFNγ
[9] = small 9-13mer peptides, yr 4, responders to Fp9 or Fp14 pool via both proliferation and IFNγ

Substance: FIV F3-3m6 (KKKSTKWRMLIDFRV)
- IFNγ (positive/total) (PBMC from HIV+ subjects): 7/9
- CD8^+ T Proliferation (positive/total) [1]: 2/5

Substance: ASQEVKNWMTETLLV [Hp15-2]
- CD8^+ T-cell cytotoxins (8C) [2]: +
- CD4^+ T-cell cytotoxins (4C) [3]: +

Substance: FIV F3-3m5 (KKKSGKWRKLIDFRV)
- IFNγ (positive/total) (PBMC from HIV+ subjects): 0/9
- CD8^+ T Proliferation (positive/total) [1]: 0/5

Substance: AEVKLYLKQSLSIA [Fp14-3]
- cytotoxin expression / CTL-associated activity in CD8+ T cells (in words) [2]: highest frequency and levels
- CD8^+ T-cell cytotoxins (8C) [2]: +
- HIV+ subjects whose CD8+ T cells responded with one or more cytotoxins ([2]; five HIV+ subjects, individual 13-15mer peptides): five
- CD4^+ T-cell cytotoxins (4C) [3]: +

Substance: FIV F3-3m1 (KKKDSGKWRMLIDFR)
- IFNγ (positive/total) (PBMC from HIV+ subjects): 0/9
- CD8^+ T Proliferation (positive/total) [1]: 1/5

Substance: FIV F3-3m2 (KKKDSGKWRMLIDFRV)
- IFNγ (positive/total) (PBMC from HIV+ subjects): 7/9
- CD8^+ T Proliferation (positive/total) [1]: 2/5

Substance: FIV F3-3m4 (KKKSTKWRKLIDFRV)
- IFNγ (positive/total) (PBMC from HIV+ subjects): 0/9
- CD8^+ T Proliferation (positive/total) [1]: 0/5

Substance: KLYLKQSLSI [Fp14-3/4f]
- cytotoxin and CD107a expression in CD4+ and CD8+ T cells (in words) ([4]; p24 peptides): high frequency of cytotoxin expression; also recorded: high cytotoxin and CD107a expression
- Cytotoxins [4, 6]: High Cytotoxins (The cytotoxin result is considered high when four or five subjects express one or more cytotoxins in the CD8^+ T cells)
- CD4+ T-cell proliferation response of HIV+ subjects (in words) [5]: high
- (magnitude) CD4 Proliferation [5, 7]: low (The average positive values are considered low when the frequency of response is <15% CFSE)
- Responder Frequency in %, CD4 Proliferation [5, 6]: 60%
- CD4^+ T-cell Responder Frequency [5, 8]: 6/10
- CD4^+ T-cell Responder Frequency (%) [5, 9]: (60) ^d %
- (magnitude) IFNγ (PBMC from HIV+ subjects; [7]): low (low when the frequency of response is <15% CFSE or <125 SFU)
- IFNγ response of HIV+ subjects (in words) (PBMC from HIV+ subjects; p24 pools and peptides): low
- Responder Frequency in %, IFNγ (PBMC from HIV+ subjects; [6]): 40%
- (magnitude) CD8 Proliferation [1, 7]: high (high when >30 CSFE)
- CD8+ T-cell proliferation response of HIV+ subjects (in words) ([1]; p24 pools and peptides): high
- Responder Frequency in %, CD8 Proliferation [1, 6]: 100%
- CD8^+ T-cell Responder Frequency [1, 8]: 10/10
- CD8^+ T-cell Responder Frequency (%) [1, 9]: (100) ^d %

Substance: FIV F3-3 (KKKSGKWRMLIDFRV)
- IFNγ (positive/total) (PBMC from HIV+ subjects): 13/13
- CD8^+ T Proliferation (positive/total) [1]: 6/9

Substance: FIV F3-3m3 (KKKSGKWRMLVDFRV)
- IFNγ (positive/total) (PBMC from HIV+ subjects): 0/9
- CD8^+ T Proliferation (positive/total) [1]: 0/5

Substance: FIV 3-3 (KR9) (KWRMLIDFR)
- IFNγ (positive/total) (PBMC from HIV+ subjects): 1/9
- CD8^+ T Proliferation (positive/total) [1]: 0/6

Substance: FIV F3-3 (KV15) (KKKSGKWRMLIDFRV)
- IFNγ (positive/total) (PBMC from HIV+ subjects): 13/13
- CD8^+ T Proliferation (positive/total) [1]: 6/9

Substance: EQNTAEVKLYLKQSL [Fp14-2]
- CD8^+ T-cell cytotoxins (8C) [2]: +
- CD4^+ T-cell cytotoxins (4C) [3]: +

Substance: FIV 3-3 (WV9) (WRMLIDFRV)
- IFNγ (positive/total) (PBMC from HIV+ subjects): 8/11
- CD8^+ T Proliferation (positive/total) [1]: 1/6

Substance: KKKDSTKWRKLVDFR [H3-3]
- IFNγ response of H3 responders retested (PBMC from HIV+ subjects; three H3 responders tested on or after the second year): 0/3

Substance: CAEV & MVV (KKKSGKWRMLIDFRE)
- IFNγ (positive/total) (PBMC from HIV+ subjects): 1/9
- CD8^+ T Proliferation (positive/total) [1]: 0/5
